Test results reported in patent US8193203B2, “Bicyclic compounds having activity at the CXCR4 receptor” (Allergan, Inc., priority 2008, dated 2012).

Target: T1, human CXCR4 receptor (Homo sapiens, UniProt P61073)
T1 construct: expressed in transfected cells
Assay: Measurement of intracellular Ca+2 responses (FLIPR), antagonism of the SDF-1α response
Assay type: cell-based
Conditions: for IC50: HEK-Gqi5 cells stably expressing human CXCR4, Fluo-4 FLIPR, antagonism of SDF-1α 1.9 nM (EC65); for CXCR4 (% Inh): percent antagonism of SDF-1α 1.9 nM (EC65) response, HEK-Gqi5 human CXCR4 cells, value in brackets
How it was run: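 HEK-Gqi5 cells stably expressing CXCR4, Fluo-4-loaded (2 uM, 40 min, 37 °C), read on FLIPR. Compound (2.44-40,000 nM) added first for agonism, then SDF-1α at 1.9 nM final (EC65); IC50 and percent antagonism from second-addition calcium signal.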

T1 sequence (P61073 whole entry): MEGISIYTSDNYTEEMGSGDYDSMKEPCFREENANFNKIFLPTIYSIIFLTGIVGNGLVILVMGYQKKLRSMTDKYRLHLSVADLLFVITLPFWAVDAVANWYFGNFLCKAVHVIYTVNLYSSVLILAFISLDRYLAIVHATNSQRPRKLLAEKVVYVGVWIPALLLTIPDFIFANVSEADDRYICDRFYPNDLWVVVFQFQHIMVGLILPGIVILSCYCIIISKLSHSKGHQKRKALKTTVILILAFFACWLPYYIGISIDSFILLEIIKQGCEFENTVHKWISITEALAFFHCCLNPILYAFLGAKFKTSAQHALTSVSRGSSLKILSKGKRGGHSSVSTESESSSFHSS

Row | IC50 (values in nM) [nM] | CXCR4 (% Inh) [%] | IC50 (values given in μM) [nM] | Compound
1 | 116 | 94 |  | COc1cc2nc(NCCN)nc(NC3CCN(Cc4c(OCCN(C)C)cccc4N(C)C)CC3)c2cc1OC [Compound 180, N˜2˜-(2-Aminoethyl)-N˜4˜-(1-{2-(dimethylamino)-6-[2-(dimethylamino)ethoxy]benzyl}piperidin-4-yl)-6,7-dimethoxyquinazoline-2,4-diamine]
2 | 58 | 98 |  | COc1cc2nc(NCc3cnco3)nc(NC3CCN(Cc4c(OCCN(C)C)cccc4N(C)C)CC3)c2cc1OC [Compound 212, N˜4˜-(1-{2-(Dimethylamino)-6-[2-(dimethylamino)ethoxy]benzyl}piperidin-4-yl)-6,7-dimethoxy-N˜2˜-(1,3-oxazol-5-ylmethyl)quinazoline-2,4-diamine]
3 |  | 86 | 3500 | COc1cccc(N(C)C)c1CN1CCC(Nc2nc(N3CCN(C(C)=O)CC3)nc3ccccc23)CC1 [Compound 86, 1-(4-(4-(1-(2-(Dimethylamino)-6-methoxybenzyl)piperidin-4-ylamino)quinazolin-2-yl)piperazin-1-yl)ethanone]
4 | 215 | 97 |  | CNCCCCNc1nc(NC2CCN(Cc3c(OC)cccc3N(C)C)CC2)c2ccccc2n1 [Compound 102, N4-(1-(2-(Dimethylamino)-6-methoxybenzyl)piperidin-4-yl)-N2-(4-(methylamino)butyl)quinazoline-2,4-diamine]
5 |  | 74 | 6600 | CCN(CC)CCCNc1nc(NC2CCN(Cc3ccccc3-n3ccnc3)CC2)c2ccccc2n1 [Compound 131, N4-(1-(2-(1H-Imidazol-1-yl)benzyl)piperidin-4-yl)-N2-(3-(diethylamino)propyl)quinazoline-2,4-diamine]
6 | 130 | 94 |  | COc1cccc(N(C)C)c1CN1CCC(Nc2nc(NCCCN)nc3ccccc23)CC1 [Compound 80, N˜2˜-(3-Aminopropyl)-N˜4˜-{1-[2-(dimethylamino)-6-methoxybenzyl]piperidin-4-yl}quinazoline-2,4-diamine]
7 | 155 | 98 |  | COc1cccc(N(C)C)c1CN1CCC(Nc2nc(NCC3CNC3)nc3ccccc23)CC1 [Compound 109, N2-(Azetidin-3-ylmethyl)-N4-(1-(2-(dimethylamino)-6-methoxybenzyl)piperidin-4-yl)quinazoline-2,4-diamine]
8 | 65 | 97 |  | COc1cc2nc(NCCc3ncc[nH]3)nc(NC3CCN(Cc4c(OCCN(C)C)cccc4N(C)C)CC3)c2cc1OC [Compound 210, N˜4˜-(1-{2-(Dimethylamino)-6-[2-(dimethylamino)ethoxy]benzyl}piperidin-4-yl)-N˜2˜-[2-(1H-imidazol-2-yl)ethyl]-6,7-dimethoxyquinazoline-2,4-diamine]
9 | 978 | 75 |  | CN(C)CCCNc1nc(NC2CCN(Cc3ccccc3-n3cccc3)CC2)c2ccccc2n1 [Compound 130, N4-(1-(2-(1H-Pyrrol-1-yl)benzyl)piperidin-4-yl)-N2-(3-(dimethylamino)propyl)quinazoline-2,4-diamine]
10 | 624 | 98 |  | COc1cccc(N(C)C)c1CN1CCC(Nc2nc(NCC3CCCO3)nc3ccccc23)CC1 (centres unmarked) [Compound 98, N4-(1-(2-(Dimethylamino)-6-methoxybenzyl)piperidin-4-yl)-N2-((tetrahydrofuran-2-yl)methyl)quinazoline-2,4-diamine]
11 | 343 | 90 |  | CCN(CC)CCNc1nc(NC2CCN(Cc3ccccc3N(C)C)CC2)c2cc(OC)c(OC)cc2n1 [Compound 32]
12 | 730 | 90 |  | COc1cc2nc(N3CCCCCC3)nc(NC3CCN(Cc4c(OC)cccc4N(C)C)CC3)c2cc1OC [Compound 52, 2-(Azepan-1-yl)-N-(1-(2-(dimethylamino)-6-methoxybenzyl)piperidin-4-yl)-6,7-dimethoxyquinazolin-4-amine]
13 | 32 | 100 |  | COc1cc2nc(NCc3nccs3)nc(NC3CCN(Cc4c(OCCN(C)C)cccc4N(C)C)CC3)c2cc1OC [Compound 205, N˜4˜-(1-{2-(Dimethylamino)-6-[2-(dimethylamino)ethoxy]benzyl}piperidin-4-yl)-6,7-dimethoxy-N˜2˜-(1,3-thiazol-2-ylmethyl)quinazoline-2,4-diamine]
14 | 105 | 94 |  | COc1cc2nc(NCCCN)nc(NC3CCN(Cc4c(OC)cccc4N(C)C)CC3)c2cc1OC [Compound 227]
15 |  | 100 | 1900 | COc1cccc(N(C)C)c1CN1CCC(Nc2nc(NCCC#N)nc3ccccc23)CC1 [Compound 100, 3-(4-(1-(2-(Dimethylamino)-6-methoxybenzyl)piperidin-4-ylamino)quinazolin-2-ylamino)propanenitrile]
16 | 73 | 99 |  | COc1cc2nc(NCc3cn(C)cn3)nc(NC3CCN(Cc4c(OCCN(C)C)cccc4N(C)C)CC3)c2cc1OC [Compound 215, N˜4˜-(1-{2-(Dimethylamino)-6-[2-(dimethylamino)ethoxy]benzyl}piperidin-4-yl)-6,7-dimethoxy-N˜2˜-[(1-methyl-1H-imidazol-4-yl)methyl]quinazoline-2,4-diamine]
17 | 47 | 94 |  | COc1cc2nc(NCCCN)nc(NC3CCN(Cc4c(OCCN(C)C)cccc4N(C)C)CC3)c2cc1OC [Compound 182, N˜2˜-(3-Aminopropyl)-N˜4˜-(1-{2-(dimethylamino)-6-[2-(dimethylamino)ethoxy]benzyl}piperidin-4-yl)-6,7-dimethoxyquinazoline-2,4-diamine]
18 |  | 93 | 1400 | CCN(CC)CCCNc1nc(NC2CCN(Cc3c(OC(C)C)cccc3N(C)C)CC2)c2cc(OC)c(OC)cc2n1 [Compound 139, N˜2˜-[3-(Diethylamino)propyl]-N˜4˜-{1-[2-(dimethylamino)-6-isopropoxybenzyl]piperidin-4-yl}-6,7-dimethoxyquinazoline-2,4-diamine]
19 | 611 | 100 |  | COc1cccc(N(C)C)c1CN1CCC(Nc2nc(NCCCO)nc3ccccc23)CC1 [Compound 99, 3-(4-(1-(2-(Dimethylamino)-6-methoxybenzyl)piperidin-4-ylamino)quinazolin-2-ylamino)propan-1-ol]
20 |  | 94 | 1900 | COc1cccc(N(C)C)c1CN1CCC(Nc2nc(N3CCC3)nc3ccccc23)CC1 [Compound 88, 2-(Azetidin-1-yl)-N-(1-(2-(dimethylamino)-6-methoxybenzyl)piperidin-4-yl)quinazolin-4-amine]
21 | 411 | 94 |  | COc1cc2nc(NCCCN(C)C)nc(NC3CCN(Cc4c(OC)cccc4N(C)CCN(C)C)CC3)c2cc1OC [Compound 157, N˜4˜-[1-(2-{[2-(Dimethylamino)ethyl](methyl)amino}-6-methoxybenzyl)piperidin-4-yl]-N˜2˜-[3-(dimethylamino)propyl]-6,7-dimethoxyquinazoline-2,4-diamine]
22 | 56 | 96 |  | COc1cc2nc(NCC3CNC3)nc(NC3CCN(Cc4c(OCCN(C)C)cccc4N(C)C)CC3)c2cc1OC [Compound 230, N2-(Azetidin-3-ylmethyl)-N4-(1-(2-(dimethylamino)-6-(2-(dimethylamino)ethoxy)benzyl)piperidin-4-yl)-6,7-dimethoxyquinazoline-2,4-diamine]
